Measured values published in publication PMC7108740, “Exploring the molecular structures that confer ligand selectivity for galanin type II and III receptors” (PLoS ONE, 2020).
Changes are numbered by the printed parent chain. Ends that are not written are not given here.

Key:
Type in all cases: cell-based
[1] = target: T1, GALR3 single mutant S^266T (Homo sapiens, UniProt O60755, S266T); experiment: SRE-luc luciferase assay, GALR3 S266T; details: GALR3 S^266T; SRE-luc in HEK293 Gqi cells, ligand 6 h; mean ± S.E.; SEM
T1 construct: expressed in transfected cells; host or cells: HEK293 cells stably expressing Gqi
Text: (§1) For domain swapping between GALR2 and GALR3, individual cDNA fragments of interest were amplified by polymerase chain reaction (PCR) with Pfu polymerase (ELPIS Biotech, Daejeon, Korea) and two specific primers, one corresponding to the 5' or 3' end of the GALR2 or GALR3 cDNA and the other to the region of overlap between the two receptors. The two resulting fragments, one from GALR2 and the other from GALR3, were subjected to a second round of PCR to generate the chimeric cDNAs. To construct single, double-, triple-, pentuple-, hextuple-, and septuple-mutant receptors, amino acids of GALR3 were substituted for the amino acids at the corresponding positions in GALR2 using PCR-based site-directed mutagenesis. All of the chimeric constructs were cloned into the pcDNA3 expression vector at HindⅢ and XbaⅠ sites. The DNA sequences of the chimeras were verified by automatic sequencing. […] The luciferase activity in 50 μl cell extract was determined using a luciferase assay system according to the standard protocol for the Synergy 2 Multi-Mode Microplate Reader (BioTek, Winooski, VT, USA). […] The concentrations of agonists that induced half-maximal stimulation (EC50) were calculated using the GraphPad PRISM5 software (GraphPad software, Inc., San Diego, CA). […]

[2] = target: T2, GALR3 (Homo sapiens, UniProt O60755); experiment: SRE-luc luciferase assay, WT GALR3; design: host or cells: HEK293 cells stably expressing Gqi; details: SRE-luc in HEK293 Gqi cells, ligand 6 h, mean ± SE, at least three independent experiments, SEM
T2 sequence (O60755 1-368): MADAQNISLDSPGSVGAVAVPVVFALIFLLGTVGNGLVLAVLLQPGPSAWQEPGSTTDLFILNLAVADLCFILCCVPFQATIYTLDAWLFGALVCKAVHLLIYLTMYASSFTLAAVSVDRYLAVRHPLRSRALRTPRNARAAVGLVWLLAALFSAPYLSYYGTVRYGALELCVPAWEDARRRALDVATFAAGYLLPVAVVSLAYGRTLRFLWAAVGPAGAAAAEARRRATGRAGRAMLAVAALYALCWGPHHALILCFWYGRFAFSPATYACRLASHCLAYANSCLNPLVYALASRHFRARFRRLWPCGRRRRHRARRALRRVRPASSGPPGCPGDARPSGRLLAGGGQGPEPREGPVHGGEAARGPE
Text: (§2) The pcDNA3.1 vector was purchased from Invitrogen (San Diego, CA, USA). The serum response element (SRE)-luciferase (SRE-luc) vector containing a single copy of the SRE (CCATATTAGG) conjugated with luciferase was purchased from Stratagene (La Jolla, CA, USA). The cDNAs for human GALR1, GALR2, and GALR3 were obtained from BRN SCIENCE, Inc. The cDNAs were inserted into the EcoRⅠ and XhoⅠ sites of pcDNA3.1.
(§3) HEK293 cells stably expressing the Gqi construct, which allows induction of Gq-dependent signaling pathways upon activation of a Gi-coupled receptor [14, 30], were maintained in Dulbecco's Modified Eagle's Medium (DMEM) in the presence of 10% fetal bovine serum and 1% penicillin and streptomycin. For all transfections, 200 ng DNA (100 ng receptor and 100 ng SRE-luc) mixed with lipofectamine 2000 was applied to 60–80% confluent cells on a multi-well plate according to the manufacturer's instructions (Invitrogen, Carlsbad, CA).
(§4) For luciferase assays, HEK293 Gqi cells were seeded on 48-well plates at a density of 2.5 × 10^4 cells/well one day before transfection. A mixture including 100 ng SRE-luc reporter construct, 100 ng expression plasmid, and lipofectamine 2000 reagent in diluted Opti-MEM (Gibco) was incubated at room temperature for 20 min and then added into each well according to the manufacturer's instructions (Invitrogen, CA, USA). Before exposure to the ligands, the cells were maintained in serum-free DMEM for 16–18 h. Approximately 48 h after transfection, the cells were treated with ligand for 6 h. The cells were then lysed by the addition of 100 μl lysis buffer. The luciferase activity in 50 μl cell extract was determined using a luciferase assay system according to the standard protocol for the Synergy 2 Multi-Mode Microplate Reader (BioTek, Winooski, VT, USA).
(§5) Data analysis was performed by non-linear regression with a sigmoidal dose-response curve. The concentrations of agonists that induced half-maximal stimulation (EC50) were calculated using the GraphPad PRISM5 software (GraphPad software, Inc., San Diego, CA). All data are presented as the mean ± standard error (SE) of at least three independent experiments.

[3] = target: T3, GALR3 single mutant A^264P (Homo sapiens, UniProt O60755, A264P); experiment: SRE-luc luciferase assay, GALR3 A264P; details: GALR3 A^264P; SRE-luc in HEK293 Gqi cells, ligand 6 h; mean ± S.E.; SEM
T3 construct: expressed in transfected cells; host or cells: HEK293 cells stably expressing Gqi
Text: as §1

[4] = target: T4, GALR3 single mutant P^267R (Homo sapiens, UniProt O60755, P267R); experiment: SRE-luc luciferase assay, GALR3 P267R; details: GALR3 P^267R; SRE-luc in HEK293 Gqi cells, ligand 6 h; mean ± S.E.; SEM
T4 construct: expressed in transfected cells; host or cells: HEK293 cells stably expressing Gqi
Text: as §1

[5] = target: T5, human GALR2 (Homo sapiens, UniProt O43603); experiment: SRE-luc luciferase assay, WT GALR2; details: SRE-luc in HEK293 Gqi cells, ligand 6 h, mean ± SE, at least three independent experiments, SEM
T5 construct: host or cells: HEK293 cells stably expressing Gqi
T5 sequence (O43603 1-387): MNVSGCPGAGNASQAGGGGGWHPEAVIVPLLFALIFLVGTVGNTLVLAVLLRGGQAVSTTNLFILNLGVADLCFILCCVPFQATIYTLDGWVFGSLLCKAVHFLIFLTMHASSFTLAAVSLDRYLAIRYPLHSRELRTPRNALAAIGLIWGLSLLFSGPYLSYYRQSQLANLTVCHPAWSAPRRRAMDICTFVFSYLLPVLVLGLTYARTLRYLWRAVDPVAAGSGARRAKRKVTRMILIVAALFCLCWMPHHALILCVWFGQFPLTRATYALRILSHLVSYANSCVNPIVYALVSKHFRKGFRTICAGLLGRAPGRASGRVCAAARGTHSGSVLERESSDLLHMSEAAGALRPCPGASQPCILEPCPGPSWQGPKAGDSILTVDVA
Text: as §2, §3, §4, §5

[6] = target: T6, GALR3 single mutant F^265P (Homo sapiens, UniProt O60755); experiment: SRE-luc luciferase assay, GALR3 F265P; details: GALR3 F^265P; SRE-luc in HEK293 Gqi cells, ligand 6 h; mean ± S.E.; SEM
T6 construct: expressed in transfected cells; host or cells: HEK293 cells stably expressing Gqi
Text: as §1

[7] = target: T7, GALR3 single mutant C^272L (Homo sapiens, UniProt O60755, C272L); experiment: SRE-luc luciferase assay, GALR3 C272L; details: GALR3 C^272L; SRE-luc in HEK293 Gqi cells, ligand 6 h; mean ± S.E.; SEM
T7 construct: expressed in transfected cells; host or cells: HEK293 cells stably expressing Gqi
Text: as §1

[8] = target: T8, GALR3 septuple (Homo sapiens, UniProt O60755, A190V/A191F/C272L/G192S/L100F/Y103F/Y107H); experiment: cAMP assay (inhibition of forskolin-induced cAMP), GALR3 septuple mutant; details: Glosensor-22F cAMP HEK293 cells, agonist 10 min then forskolin 10 μM, mean ± SE, SEM
T8 construct: expressed in transfected cells; host or cells: HEK293 cells stably expressing pGlosensor-22F cAMP plasmid
T8 sequence (O60755 1-368 L100F/Y103F/Y107H/A190V/A191F/G192S/C272L): T2 sequence (O60755 1-368) with L100F, Y103F, Y107H, A190V, A191F, G192S, C272L
Description: SPX-induced or Qu-SPX-induced cyclic adenosine monophosphate (cAMP) mobilization was measured in HEK293 cells stably expressing the pGlosensor^TM-22F cAMP plasmid (Promega Corp., Madison, WI, USA). The Glosensor-22F cAMP HEK293 cells were seeded on 96-well plates at a density of 2.0 × 10^4 cells/well 24 h before transfection. A mixture including 100 ng expression plasmid and lipofectamine 2000 reagent in diluted Opti-MEM (Gibco) was incubated at room temperature for 20 min. The mixtures were added into each well according to the manufacturer's instructions (Invitrogen, CA, USA). After 48 h, Glosensor cAMP substrates were added to the transfected cells in CO2-independent media. After 2 h, the cells were incubated with a range of agonist concentrations or vehicle for 10 min and then exposed to foskolin (10 μM). Luminescence was measured for up to 30 min using a Microplate Reader (BioTek, Winooski, VT, USA).
as §5, with “experiments. […]” for “experiments.”

[9] = target: T8, GALR3 septuple; experiment: SRE-luc luciferase assay, GALR3 septuple mutant; details: SRE-luc in HEK293 Gqi cells, ligand 6 h, mean ± SE, SEM
Text: For domain swapping between GALR2 and GALR3, individual cDNA fragments of interest were amplified by polymerase chain reaction (PCR) with Pfu polymerase (ELPIS Biotech, Daejeon, Korea) and two specific primers, one corresponding to the 5' or 3' end of the GALR2 or GALR3 cDNA and the other to the region of overlap between the two receptors. The two resulting fragments, one from GALR2 and the other from GALR3, were subjected to a second round of PCR to generate the chimeric cDNAs. To construct single, double-, triple-, pentuple-, hextuple-, and septuple-mutant receptors, amino acids of GALR3 were substituted for the amino acids at the corresponding positions in GALR2 using PCR-based site-directed mutagenesis. […]
For luciferase assays, HEK293 Gqi cells were seeded on 48-well plates at a density of 2.5 × 10^4 cells/well one day before transfection. […] The luciferase activity in 50 μl cell extract was determined using a luciferase assay system according to the standard protocol for the Synergy 2 Multi-Mode Microplate Reader (BioTek, Winooski, VT, USA).
Data analysis was performed by non-linear regression with a sigmoidal dose-response curve. The concentrations of agonists that induced half-maximal stimulation (EC50) were calculated using the GraphPad PRISM5 software (GraphPad software, Inc., San Diego, CA). […]

T4 sequence (O60755 whole entry P267R): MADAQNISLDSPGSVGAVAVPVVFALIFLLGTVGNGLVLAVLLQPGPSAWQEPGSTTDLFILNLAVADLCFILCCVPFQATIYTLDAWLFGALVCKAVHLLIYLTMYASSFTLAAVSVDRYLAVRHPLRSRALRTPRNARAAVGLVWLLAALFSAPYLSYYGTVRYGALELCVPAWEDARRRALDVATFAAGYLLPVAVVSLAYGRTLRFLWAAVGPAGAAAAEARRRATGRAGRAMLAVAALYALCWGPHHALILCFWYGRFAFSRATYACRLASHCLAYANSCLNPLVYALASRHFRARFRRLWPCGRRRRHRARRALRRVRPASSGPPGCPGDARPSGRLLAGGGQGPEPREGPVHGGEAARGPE
T1 sequence (O60755 whole entry S266T): as the sequence (O60755 whole entry P267R) above, with S266T, R267P counted along it
T7 sequence (O60755 whole entry C272L): as the sequence (O60755 whole entry P267R) above, with R267P, C272L counted along it
T6 sequence (O60755 whole entry F265L): as the sequence (O60755 whole entry P267R) above, with F265L, R267P counted along it
T3 sequence (O60755 whole entry A264P): as the sequence (O60755 whole entry P267R) above, with A264P, R267P counted along it

NWTPQAMLYLFGAQ-NH2 [F^11-SPX]
EC50 [1]: 200 ± 29.7 nM
EC50 [2]: 490 ± 118 nM
EC50 [3]: 589 ± 200 nM
EC50 [4]: 562 ± 173 nM
EC50 [5]: 47.9 ± 11.5 nM
EC50 [6]: 457 ± 118 nM
EC50 [7]: 66.1 ± 22.4 nM

NWTPNAALYLFGPQ-NH2 [Qu-SPX]
EC50 [8]: 794 ± 358 nM
EC50 [5]: 87.1 ± 19.5 nM
EC50 [9]: 1100 ± 163 nM
